Key:
[1] = Oral bioavailability in mouse at 5 mg/kg; type: ADME, organism-based; details: in vivo
[2] = Clearance in mouse plasma at 0.2 mg/kg, iv or 5 mg/kg, po; type: ADME, organism-based
[3] = Cmax in mouse plasma at 5 mg/kg, po; type: ADME, organism-based; set-up: dose 5 mg/kg, route oral
[4] = Volume of distribution in mouse plasma at 0.2 mg/kg, iv or 5 mg/kg, po; type: ADME, organism-based; details: read-out: Vdss
[5] = Half life in mouse plasma at 0.2 mg/kg, iv or 5 mg/kg, po; type: ADME, organism-based
[6] = AUC in mouse plasma at 5 mg/kg, po; type: ADME, organism-based; set-up: dose 5 mg/kg, route oral
[7] = test system: Mus musculus; assay: Reduction of triglyceride level in human Apo-A1 transgenic C57B6 mouse at 20 mg/kg, po bid after 5 days; type: functional; set-up: scale not given: the % may be the effect or the level left
[8] = test system: Mus musculus; assay: Reduction of VLDL cholesterol level in human Apo-A1 transgenic C57B6 mouse at 20 mg/kg, po bid after 5 days; type: functional; set-up: scale not given: the % may be the effect or the level left
[9] = test system: Mus musculus; assay: Reduction of LDL cholesterol level in human Apo-A1 transgenic C57B6 mouse at 20 mg/kg, po bid after 5 days; type: functional; set-up: scale not given: the % may be the effect or the level left
[10] = test system: Mus musculus; assay: Elevation of HDL cholesterol level in human Apo-A1 transgenic C57B6 mouse at 20 mg/kg, po bid after 5 days; type: functional
[11] = target: T1, Peroxisome proliferator-activated receptor alpha (Homo sapiens, UniProt Q07869)
T1 sequence (Q07869 whole entry): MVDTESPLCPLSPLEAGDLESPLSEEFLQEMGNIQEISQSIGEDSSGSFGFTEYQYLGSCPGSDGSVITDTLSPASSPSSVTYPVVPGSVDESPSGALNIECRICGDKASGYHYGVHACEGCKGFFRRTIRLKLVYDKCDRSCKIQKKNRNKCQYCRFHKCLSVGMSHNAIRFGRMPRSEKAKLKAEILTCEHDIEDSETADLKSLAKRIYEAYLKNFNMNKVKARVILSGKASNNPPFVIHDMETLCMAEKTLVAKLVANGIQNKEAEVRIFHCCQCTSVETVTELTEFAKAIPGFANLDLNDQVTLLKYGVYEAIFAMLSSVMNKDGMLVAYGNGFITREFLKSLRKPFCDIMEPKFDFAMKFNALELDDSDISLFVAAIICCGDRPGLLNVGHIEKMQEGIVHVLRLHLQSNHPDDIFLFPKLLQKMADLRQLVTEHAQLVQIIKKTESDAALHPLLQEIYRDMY
Description: Agonist activity at human PPARalpha assessed as receptor activation by cell based assay

[12] = target: T2, Peroxisome proliferator-activated receptor alpha (Mus musculus, UniProt P23204)
T2 sequence (P23204 whole entry): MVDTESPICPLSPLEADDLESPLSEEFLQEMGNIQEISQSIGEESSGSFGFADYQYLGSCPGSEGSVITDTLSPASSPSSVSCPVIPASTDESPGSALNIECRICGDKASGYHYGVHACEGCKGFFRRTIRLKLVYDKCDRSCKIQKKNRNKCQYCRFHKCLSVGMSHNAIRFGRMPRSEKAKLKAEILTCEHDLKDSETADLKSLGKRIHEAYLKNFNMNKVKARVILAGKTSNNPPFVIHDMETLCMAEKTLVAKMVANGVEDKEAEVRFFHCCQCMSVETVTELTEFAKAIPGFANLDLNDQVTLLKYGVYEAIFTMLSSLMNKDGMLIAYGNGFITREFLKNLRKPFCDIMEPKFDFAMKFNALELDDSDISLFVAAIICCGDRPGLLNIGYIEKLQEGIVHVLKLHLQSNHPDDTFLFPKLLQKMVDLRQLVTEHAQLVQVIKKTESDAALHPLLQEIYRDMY
Description: (§1) Agonist activity at mouse PPARalpha assessed as receptor activation by cell based assay

[13] = target: T3, Peroxisome proliferator-activated receptor delta (Homo sapiens, UniProt Q03181)
T3 sequence (Q03181 whole entry): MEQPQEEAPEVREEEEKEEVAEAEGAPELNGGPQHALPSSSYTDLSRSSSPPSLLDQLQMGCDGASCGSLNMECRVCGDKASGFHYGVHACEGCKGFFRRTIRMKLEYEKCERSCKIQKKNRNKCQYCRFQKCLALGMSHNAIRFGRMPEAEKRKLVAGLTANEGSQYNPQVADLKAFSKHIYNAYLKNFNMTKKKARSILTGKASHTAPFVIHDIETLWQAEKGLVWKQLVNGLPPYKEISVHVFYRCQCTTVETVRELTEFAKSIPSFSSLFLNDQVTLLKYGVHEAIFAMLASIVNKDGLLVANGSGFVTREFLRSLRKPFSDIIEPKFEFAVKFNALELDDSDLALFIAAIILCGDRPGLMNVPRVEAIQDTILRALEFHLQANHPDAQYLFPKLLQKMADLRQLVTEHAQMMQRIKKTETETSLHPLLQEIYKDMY
Description: Agonist activity at human PPARdelta assessed as receptor activation by cell based assay

[14] = target: T4, Peroxisome proliferator-activated receptor delta (Mus musculus, UniProt P35396)
T4 sequence (P35396 whole entry): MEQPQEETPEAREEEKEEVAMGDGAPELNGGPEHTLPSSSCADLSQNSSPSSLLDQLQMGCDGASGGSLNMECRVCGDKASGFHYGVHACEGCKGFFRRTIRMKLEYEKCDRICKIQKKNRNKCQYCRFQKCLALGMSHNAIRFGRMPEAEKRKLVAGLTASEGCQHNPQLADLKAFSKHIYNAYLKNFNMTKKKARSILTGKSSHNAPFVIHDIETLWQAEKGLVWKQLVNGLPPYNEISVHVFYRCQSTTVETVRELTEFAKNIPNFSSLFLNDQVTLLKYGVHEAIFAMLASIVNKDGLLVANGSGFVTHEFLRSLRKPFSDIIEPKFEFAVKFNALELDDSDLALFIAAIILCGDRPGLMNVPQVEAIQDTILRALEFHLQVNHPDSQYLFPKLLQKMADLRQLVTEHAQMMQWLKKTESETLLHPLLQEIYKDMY
Description: Agonist activity at mouse PPARdelta assessed as receptor activation by cell based assay

[15] = target: T5, Peroxisome proliferator-activated receptor gamma (Homo sapiens, UniProt P37231)
T5 sequence (P37231 whole entry): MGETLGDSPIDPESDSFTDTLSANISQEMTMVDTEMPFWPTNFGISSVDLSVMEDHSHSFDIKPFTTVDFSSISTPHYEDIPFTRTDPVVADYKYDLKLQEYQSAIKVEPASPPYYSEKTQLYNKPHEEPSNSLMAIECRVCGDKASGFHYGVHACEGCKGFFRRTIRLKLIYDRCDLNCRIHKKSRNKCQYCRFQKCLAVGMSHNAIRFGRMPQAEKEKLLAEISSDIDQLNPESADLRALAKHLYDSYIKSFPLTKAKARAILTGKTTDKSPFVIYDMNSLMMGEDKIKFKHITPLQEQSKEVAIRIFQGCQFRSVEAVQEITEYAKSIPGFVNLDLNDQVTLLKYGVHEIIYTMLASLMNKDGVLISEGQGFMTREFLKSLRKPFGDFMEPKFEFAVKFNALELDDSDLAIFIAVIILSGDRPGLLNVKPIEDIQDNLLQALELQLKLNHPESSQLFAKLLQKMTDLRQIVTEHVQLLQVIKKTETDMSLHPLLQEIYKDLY
Description: Agonist activity at human PPARgamma assessed as receptor activation by cell based assay

[16] = target: T6, Peroxisome proliferator-activated receptor gamma (Mus musculus, UniProt P37238)
T6 sequence (P37238 whole entry): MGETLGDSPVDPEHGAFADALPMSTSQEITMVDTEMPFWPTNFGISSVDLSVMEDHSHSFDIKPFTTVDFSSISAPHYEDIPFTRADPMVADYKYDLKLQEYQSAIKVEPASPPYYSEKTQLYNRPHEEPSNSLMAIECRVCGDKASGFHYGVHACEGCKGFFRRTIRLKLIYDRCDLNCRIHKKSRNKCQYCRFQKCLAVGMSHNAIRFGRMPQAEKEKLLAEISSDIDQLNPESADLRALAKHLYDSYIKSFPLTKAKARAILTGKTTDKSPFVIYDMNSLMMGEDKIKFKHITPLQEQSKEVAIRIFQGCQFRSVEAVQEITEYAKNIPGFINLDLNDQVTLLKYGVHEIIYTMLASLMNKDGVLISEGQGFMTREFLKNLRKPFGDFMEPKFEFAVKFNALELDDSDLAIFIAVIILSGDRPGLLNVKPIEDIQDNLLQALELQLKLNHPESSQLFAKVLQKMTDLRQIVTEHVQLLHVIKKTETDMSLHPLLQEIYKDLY
Description: Agonist activity at mouse PPARgamma assessed as receptor activation by cell based assay

[17] = target: T7, Peroxisome proliferator-activated receptor alpha (Mus musculus) (UniProt P23204)
T7 sequence (whole entry): T2 sequence (P23204 whole entry)
Description: as §1

**Q.** Which results are given for `O=C(NCc1ccc(NS(=O)(=O)C(F)(F)F)cc1)c1ccc(-c2ccc(Cl)cc2)cc1`?
**A.** bioavailability [1]: 16%; clearance [2]: 0.78 mL/min/kg; Cmax [3]: 4520 ng/mL; Vd [4]: 0.22 L/kg; half-life [5]: 4.9 h; AUC [6]: 18800 ng·h/mL; Activity [7]: -69%; Activity [8]: -85%; Activity [9]: -55%; Activity [10]: 102%; EC50 [11]: 0.005 µM; EC50 [12]: 0.02 µM; EC50 [13]: > 10 µM; EC50 [14]: > 10 µM; EC50 [15]: 1.1 µM; EC50 [16]: 0.6 µM; Activity [17]: 123%
